Data: US20140357584A1 (priority 2011, published 2014)
pIC50: −log10 of the molar value. Where two headings read alike, the source gives them in different places. One block for each compound: values may come before it.

Experiments:
HIV replication = experiment: Anti-HIV Post-Entry protocol (HIV/HA pseudovirions, luciferase reporter, A549 target cells); assay type: cell-based; details: for inhibition at 1 µg/mL: Human immunodeficiency virus 1, A549, read-out: inhibition of HIV replication
[1] = system: HIV-1 strain Bal: M-Tropic; experiment: Human PBMC assay, p24 antigen ELISA, HIV1 clinical strain Bal; assay type: cell-based
From the text: (§1) Anti-HIV Evaluation Using Four HIV1 Clinical Strains.
(§2) Four HIV1 clinical strains, BAL and SF162 (M-tropic), […], and 89.6 (a dual tropic strain), were used in the current study. Here a standardized human peripheral blood mononuclear cell culture (PBMC) assay was used to determine the compound susceptibility of these HIV-1 strains. AZT, an anti-HIV drug in clinical use, was used as a positive control. Briefly, human PBMCs were collected from a donor and stimulated for seven days. The preparations (compound or fraction) were then added to the cultured cells at a wide range of concentrations, and the different HIV-1 strains were used to challenge the cultured cells using 96-well plates. After seven-days of incubation, the supernatants were collected and the HIV p24 levels of the infected cells were determined using a p24 antigen ELISA. The ICsos were calculated by comparing p24 antigen values for the compounds (fraction)-containing wells with those for no drug control wells. In these experiments, AZT was used as positive controls.

[2] = system: HIV-1 strain 89.6: Dual-Tropic; experiment: Human PBMC assay, p24 antigen ELISA, HIV1 clinical strain 89.6; assay type: cell-based
From the text: as §1, §2

[3] = system: HIV-1 strain SF162: M-Tropic; experiment: Human PBMC assay, p24 antigen ELISA, HIV1 clinical strain SF162; assay type: cell-based
From the text: as §1, §2

[4] = system: HIV-1 strain Lav.04: T-Tropic; experiment: Human PBMC assay, p24 antigen ELISA, HIV1 clinical strain Lav.04; assay type: cell-based
From the text: as §1, §2

four HIV-1 strains = experiment: Human PBMC assay, p24 antigen ELISA, summary over the four HIV-1 strains; assay type: cell-based; details: read-out: IC50, depending on the strains
From the text: Justiprocumins B (2) and patentiflorin A (3) were further evaluated against a broad spectrum of HIV strains including four HIV1 clinical strains, BAL and SF162 (M-tropic), […], and 89.6 (a dual tropic strain). In these experiments, AZT was used as a positive control. […] It is clear that justiprocumin B (2) and patentification A (3), like AZT, could inhibit the particle production of all four HIV-1 strains effectively in a dose-dependent manner.
as §1, §2

A549 cell line = experiment: Evaluation of toxicity (CellTiter 96), A549; assay type: cell-based, human; details: at a concentration of 10 μg/mL
Experimental: (§3) Approximately 5000 cells seeded in a 96-well tissue culture plate in DMEM supplemented with FBS and penicillin/streptomycin. DMSO alone or compounds in 100% DMSO were added on the following day at appropriate concentrations and incubated with cells at 37° C. in 5% CO2 for 24 hr. After 24 hr, all media were removed and replaced with 100 μL fresh complete DMEM. After 48 hr post initial addition of DMSO or compound, 20 μL of CellTiter 96 Aqueous One Solution was added per well. After gentle mixing, plates were incubated at 37° C. in 5% CO2 for 4 hr. 25 μL of a 10% SDS solution was added per well and plates were stored at room temperature for approximately 12 hr. Absorbance was then measured at 450 nm using a plate reader.

Hela cell line = experiment: Evaluation of toxicity (CellTiter 96), Hela; assay type: cell-based; details: at a concentration of 10 μg/mL
Experimental: as §3

[5] = system: HIV reverse transcription; experiment: HIV gene expression of the R/U5 and U5/gag transcripts; assay type: cell-based
[6] = Human immunodeficiency virus 1, BAL, PBMC, 168 h, read-out: IC50 Bal: M-Tropic, human PBMC, p24 antigen, seven days
[7] = Human immunodeficiency virus 1, PBMC, 168 h, read-out: IC50 89.6: Dual-Tropic, human PBMC, p24 antigen, seven days
[8] = Human immunodeficiency virus 1, PBMC, 168 h, read-out: IC50 SF162: M-Tropic, human PBMC, p24 antigen, seven days
[9] = Human immunodeficiency virus 1, PBMC, 168 h, read-out: IC50 Lav.04: T-Tropic, human PBMC, p24 antigen, seven days
[10] = Human immunodeficiency virus 1, PBMC

Compound: COc1cc2c(OC3OC(C)C(O)C(O)C3O)c3c(c(-c4ccc5c(c4)OCO5)c2cc1OC)C(=O)OC3 (stereo not shown) [Patentiflorin A (3), patentiflorin A]
IC50 (HIV replication; Human immunodeficiency virus 1, A549, read-out: anti-HIV activity IC50): < 0.01 µg/mL
pIC50 [1, 6]: 7.52
pIC50 ([1]; read-out: IC50 Bal: M-Tropic, human PBMC, p24 antigen, seven days, listed as Synthetic patentiflorin A (3)): 7.49
pIC50 [2, 7]: 7.49
pIC50 ([2]; read-out: IC50 89.6: Dual-Tropic, human PBMC, p24 antigen, seven days, listed as Synthetic patentiflorin A (3)): 7.51
pIC50 [3, 8]: 7.43
pIC50 ([3]; read-out: IC50 SF162: M-Tropic, human PBMC, p24 antigen, seven days, listed as Synthetic patentiflorin A (3)): 7.52
pIC50 [4, 9]: 7.62
pIC50 ([4]; read-out: IC50 Lav.04: T-Tropic, human PBMC, p24 antigen, seven days, listed as Synthetic patentiflorin A (3)): 7.49
pIC50 (four HIV-1 strains; [10]): 7.43 to 7.62
cytotoxicity against A549 (A549 cell line): no apparent cytotoxicity
cytotoxicity against Hela (Hela cell line): no apparent cytotoxicity
inhibition of HIV reverse transcription (R/U5 and U5/gag transcripts) [5]: effective inhibitor of HIV reverse transcription

pIC50 ([1]; Human immunodeficiency virus 1, BAL, PBMC, 168 h, human PBMC, p24 antigen, seven days, read-out: IC50 Bal: M-Tropic): 7.11
pIC50 ([2]; Human immunodeficiency virus 1, PBMC, 168 h, human PBMC, p24 antigen, seven days, read-out: IC50 89.6: Dual-Tropic): 7.02
pIC50 ([3]; Human immunodeficiency virus 1, PBMC, 168 h, human PBMC, p24 antigen, seven days, read-out: IC50 SF162: M-Tropic): 7.07
pIC50 ([4]; Human immunodeficiency virus 1, PBMC, 168 h, human PBMC, p24 antigen, seven days, read-out: IC50 Lav.04: T-Tropic): 7.10
pIC50 (four HIV-1 strains; Human immunodeficiency virus 1, range over four HIV-1 strains, human PBMC): 7.02 to 7.11
Compound: Cc1cn([C@H]2C[C@H](N=[N+]=[N-])[C@@H](CO)O2)c(=O)[nH]c1=O [AZT, zidovudine, reference compound]

Compound: COc1cc2c(O[C@@H]3O[C@H](C)[C@@H](O[C@@H]4O[C@H](CO)[C@@H](O)[C@H](O)[C@H]4O)[C@H](O)[C@H]3OC(C)=O)c3c(c(-c4ccc5c(c4)OCO5)c2cc1OC)C(=O)OC3 [Justiprocumin B (2), 9-(1,3-benzodioxol-5-yl)-4-[(2-O-acetyl-6-deoxy-4-O-β-D-glucopyranosyl-β-D-glucopyranosyl)oxy]-6,7-dimethoxy-naphtho[2,3-c]furan-1(3H)-one]
inhibition at 1 µg/mL (HIV replication): > 100%
pIC50 [1, 6]: 7.82
pIC50 [2, 7]: 7.82
pIC50 [3, 8]: 7.85
pIC50 [4, 9]: 7.68
pIC50 (four HIV-1 strains; [10]): 7.68 to 7.85

Compound: COc1cc2c(O[C@@H]3O[C@H](C)[C@@H](O[C@@H]4O[C@H](CO)[C@@H](O)[C@H](O)[C@H]4O)[C@H](OC(C)=O)[C@H]3O)c3c(c(-c4ccc5c(c4)OCO5)c2cc1OC)C(=O)OC3 [Justiprocumin A (1), 9-(1,3-benzodioxol-5-yl)-4-[(3-O-acetyl-6-deoxy-4-O-β-D-glucopyranosyl-β-D-glucopyranosyl)oxy]-6,7-dimethoxy-naphtho[2,3-c]furan-1(3H)-one]
inhibition at 1 µg/mL (HIV replication): > 100%
